We go through eight molecules from ChEMBL document CHEMBL5252607, “Synthesis and biological evaluation of coumarin derivatives as selective CYP2A6 inhibitors” (Bioorg Med Chem Lett, 2023).

Assay type in all cases: ADME
Data set [1] deals with CYP3A4 / CYP2A6. In words: Selectivity ratio of Ki for non-competitive inhibition of CYP3A4 (unknown origin) to ratio of Ki for competitive inhibition of CYP2A6 (unknown origin). The note with it: human; read-out: Ratio Ki.
Data set [2] deals with T1, Cytochrome P450 2A6 (Homo sapiens, UniProt P11509).
T1 sequence (P11509 whole entry): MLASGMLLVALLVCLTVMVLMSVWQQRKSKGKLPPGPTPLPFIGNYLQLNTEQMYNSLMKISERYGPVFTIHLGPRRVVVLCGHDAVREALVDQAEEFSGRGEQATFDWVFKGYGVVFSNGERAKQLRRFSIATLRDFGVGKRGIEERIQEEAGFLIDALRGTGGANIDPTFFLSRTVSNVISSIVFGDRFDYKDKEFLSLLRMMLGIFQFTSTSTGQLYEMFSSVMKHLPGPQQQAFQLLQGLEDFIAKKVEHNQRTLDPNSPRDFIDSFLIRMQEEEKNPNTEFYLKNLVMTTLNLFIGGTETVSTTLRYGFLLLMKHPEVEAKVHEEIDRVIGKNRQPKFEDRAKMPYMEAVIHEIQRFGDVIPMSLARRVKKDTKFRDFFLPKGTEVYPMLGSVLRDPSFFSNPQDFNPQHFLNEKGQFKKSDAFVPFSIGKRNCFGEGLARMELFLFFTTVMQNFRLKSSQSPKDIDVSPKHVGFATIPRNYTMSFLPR
In words: Inhibition of CYP2A6 (unknown origin).

The target in data set [3] is T1, Cytochrome P450 2A6. As to the kind of experiment: Competitive inhibition of CYP2A6 (unknown origin).
Data set [4] addresses T2, Cytochrome P450 3A4 (Homo sapiens, UniProt P08684). As to the kind of experiment: Non competitive inhibition of CYP3A4 (unknown origin).
For data set [5], the system named is CYP3A4 / CYP2A6. As to the kind of experiment: Selectivity ratio of Ki for mixed type inhibition of CYP3A4 (unknown origin) to ratio of Ki for competitive inhibition of CYP2A6 (unknown origin). The note with it: human; read-out: Ratio Ki.
In a further data set the target is T3, CYP2A6 (Homo sapiens, UniProt P11509).
T3 sequence (P11509 whole entry): T1 sequence (P11509 whole entry)
As to the kind of experiment: Inhibition of CYP2A6 (unknown origin) assessed as residual activity preincubated for 10 mins.

Data set [6] has as its target T2, Cytochrome P450 3A4. In words: Mixed type inhibition of CYP3A4 (unknown origin).
For data set [7], the target named is T1, Cytochrome P450 2A6. In words: Mixed type inhibition of CYP2A6 (unknown origin).
The subject of data set [8] is CYP3A4 / CYP2A6. In words: Selectivity ratio of Ki for non-competitive inhibition of CYP3A4 (unknown origin) to ratio of Ki for mixed type inhibition of CYP2A6 (unknown origin). The note with it: human; read-out: Ratio Ki.
The target in data set [9] is T2, Cytochrome P450 3A4. In words: Inhibition of CYP3A4 (unknown origin).

A word on the IC50: it is the concentration needed to halve the response being measured. A low value points to inhibition by little substance. For orientation: Ki means the equilibrium dissociation constant of an inhibitor or competing ligand from its target. A higher Ki goes with lower affinity.

T2 sequence (P08684 whole entry): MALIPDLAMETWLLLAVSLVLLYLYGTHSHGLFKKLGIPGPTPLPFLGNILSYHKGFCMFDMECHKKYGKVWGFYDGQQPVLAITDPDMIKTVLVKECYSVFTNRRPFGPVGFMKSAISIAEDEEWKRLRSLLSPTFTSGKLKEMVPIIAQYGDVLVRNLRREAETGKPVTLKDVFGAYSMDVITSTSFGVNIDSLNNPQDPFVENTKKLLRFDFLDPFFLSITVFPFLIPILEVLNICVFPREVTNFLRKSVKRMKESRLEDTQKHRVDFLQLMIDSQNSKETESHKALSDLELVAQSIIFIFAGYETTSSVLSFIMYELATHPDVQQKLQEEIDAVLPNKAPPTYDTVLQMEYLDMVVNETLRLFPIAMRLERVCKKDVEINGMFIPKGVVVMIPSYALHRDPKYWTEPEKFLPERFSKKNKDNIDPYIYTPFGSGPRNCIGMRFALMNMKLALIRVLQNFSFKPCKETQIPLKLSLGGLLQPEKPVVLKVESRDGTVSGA

`CCOc1cccc2oc(=O)ccc12`: the selectivity ratio in the data set on CYP3A4 / CYP2A6 [1] was 5300. This molecule showed a half-inhibitory concentration (IC50) against Cytochrome P450 2A6 [2] of 170 nM. Further, the Ki at Cytochrome P450 2A6 [3] was 80 nM; at Cytochrome P450 3A4 [4], 424000 nM.

Regarding `C#CCOc1cccc2oc(=O)ccc12`, the selectivity ratio in the data set on CYP3A4 / CYP2A6 [5] came to 4660. Also, at CYP2A6, the activity amounted to 57%. At Cytochrome P450 2A6 [2], the IC50 was 40 nM. Besides, the Ki came to 10 nM at Cytochrome P450 2A6 [3] and 46600 nM on Cytochrome P450 3A4 [6].

On Cytochrome P450 2A6 [2], `COc1cccc2oc(=O)ccc12` registered an IC50 of 130 nM. The Ki at Cytochrome P450 2A6 [7] was 50 nM; on Cytochrome P450 3A4 [4], 448000 nM. Moreover, the selectivity ratio in the data set on CYP3A4 / CYP2A6 [8] was determined as 8970.

Regarding `COc1c2occc2cc2ccc(=O)oc12` [METHOXSALEN], the activity on CYP2A6 was 52%.

With `COc1cccc2ccc(=O)oc12`, the IC50 against Cytochrome P450 3A4 [9] is over 250000 nM; on Cytochrome P450 2A6 [2] it was 7470 nM. Besides, the activity at CYP2A6 was 62%. Also, the Ki on Cytochrome P450 2A6 [3] turned out to be 4000 nM.

Consider `CCCOc1cccc2oc(=O)ccc12`, for which the IC50 against Cytochrome P450 3A4 [9] was over 250000 nM; against Cytochrome P450 2A6 [2], 1060 nM. At Cytochrome P450 2A6 [3], this molecule came in with a Ki of 540 nM.

For the molecule `COc1ccc2oc(=O)ccc2c1`, the figures for the IC50 against Cytochrome P450 3A4 [9] and at Cytochrome P450 2A6 [2] were over 250000 nM and 200 nM, respectively. The inhibitory constant (Ki) on Cytochrome P450 2A6 [3] was found to be 250 nM.

As to `C=CCOc1cccc2oc(=O)ccc12`, the selectivity ratio in the data set on CYP3A4 / CYP2A6 [5] amounted to 937. In addition, the IC50 at Cytochrome P450 2A6 [2] was determined as 50 nM. Besides, the Ki at Cytochrome P450 2A6 [3] worked out at 30 nM; at Cytochrome P450 3A4 [6], 28100 nM.
